How the values were obtained:
Assay in all cases: radiometric filter-binding kinase assay
TAOK1 (human) = TAOK1 (human) (UniProt Q7L7X3)
AURKA (human) = AURKA (human) (UniProt O14965)
GCK (human) = GCK (human) (UniProt Q12851)
BTK (human) = BTK (human) (UniProt Q06187)
RIPK2 (human) = RIPK2 (human) (UniProt O43353)
MAPKAPK3 (human) = MAPKAPK3 (human) (UniProt Q16644)
CHEK1 (human) = CHEK1 (human) (UniProt O14757)
RPS6KA3 KD1 KD2 (human) = RPS6KA3 KD1 KD2 (human) (UniProt P51812)
PRKACA (human) = PRKACA (human) (UniProt P17612)
MELK (human) = MELK (human) (UniProt Q14680)
MINK1 (human) = MINK1 (human) (UniProt Q8N4C8)
MAP2K2 (human) = MAP2K2 (human) (UniProt P36507)
FGFR1 (human) = FGFR1 (human) (UniProt P11362)
AURKB (human) = AURKB (human) (UniProt Q96GD4)
BRSK1 (human) = BRSK1 (human) (UniProt Q8TDC3)
[1] = tested on: SGK1 (human), O00141 [S422D]
MAPK12 (human) = MAPK12 (human) (UniProt P53778)
MAPK15 (human) = MAPK15 (human) (UniProt Q8TD08)
ERBB4 (human) = ERBB4 (human) (UniProt Q15303)
PIM2 (human) = PIM2 (human) (UniProt Q9P1W9)
MST4 (human) = MST4 (human) (UniProt Q9P289)
CSNK2A1 (human) = CSNK2A1 (human) (UniProt P68400)
PRKCA (human) = PRKCA (human) (UniProt P17252)
MAPK10 (human) = MAPK10 (human) (UniProt P53779)
SRPK1 (human) = SRPK1 (human) (UniProt Q96SB4)
DYRK2 (human) = DYRK2 (human) (UniProt Q92630)
INSRR (human) = INSRR (human) (UniProt P14616)
MAP2K6 (human) = MAP2K6 (human) (UniProt P52564)
PHKG1 (human) = PHKG1 (human) (UniProt Q16816)
FLT1 (human) = FLT1 (human) (UniProt P17948)
EEF2K (human) = EEF2K (human) (UniProt O00418)
EPHA2 (human) = EPHA2 (human) (UniProt P29317)
MAPKAPK5 (human) = MAPKAPK5 (human) (UniProt Q8IW41)
CDK2 CCNA2 (human) = CDK2 CCNA2 (human) (UniProt P20248+P24941)
[2] = tested on: PAK2 (human), Q13177 [T402E]
PIM3 (human) = PIM3 (human) (UniProt Q86V86)

BRSK1 (human), sequence (Q8TDC3 whole entry, looked up): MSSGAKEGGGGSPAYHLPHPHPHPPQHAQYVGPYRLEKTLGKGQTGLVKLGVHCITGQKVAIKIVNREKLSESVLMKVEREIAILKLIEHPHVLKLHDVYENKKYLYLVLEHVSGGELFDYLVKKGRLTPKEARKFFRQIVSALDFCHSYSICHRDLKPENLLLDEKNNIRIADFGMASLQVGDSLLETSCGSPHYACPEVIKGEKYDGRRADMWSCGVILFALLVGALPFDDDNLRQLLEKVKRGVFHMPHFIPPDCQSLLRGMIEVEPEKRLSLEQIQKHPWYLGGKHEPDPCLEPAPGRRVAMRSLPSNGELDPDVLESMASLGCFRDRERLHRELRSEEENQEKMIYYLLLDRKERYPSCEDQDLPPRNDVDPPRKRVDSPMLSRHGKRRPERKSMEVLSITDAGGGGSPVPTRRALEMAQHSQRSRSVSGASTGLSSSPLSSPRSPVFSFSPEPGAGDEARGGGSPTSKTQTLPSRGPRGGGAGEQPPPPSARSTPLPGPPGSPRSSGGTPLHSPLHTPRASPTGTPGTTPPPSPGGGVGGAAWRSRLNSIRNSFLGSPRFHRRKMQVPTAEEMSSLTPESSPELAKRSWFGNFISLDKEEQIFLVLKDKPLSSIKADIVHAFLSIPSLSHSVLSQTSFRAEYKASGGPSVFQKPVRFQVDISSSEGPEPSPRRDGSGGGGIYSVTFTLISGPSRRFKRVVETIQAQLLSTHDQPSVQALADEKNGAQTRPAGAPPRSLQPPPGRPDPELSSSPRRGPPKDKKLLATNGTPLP
MAP2K6 (human), sequence (P52564 whole entry, looked up): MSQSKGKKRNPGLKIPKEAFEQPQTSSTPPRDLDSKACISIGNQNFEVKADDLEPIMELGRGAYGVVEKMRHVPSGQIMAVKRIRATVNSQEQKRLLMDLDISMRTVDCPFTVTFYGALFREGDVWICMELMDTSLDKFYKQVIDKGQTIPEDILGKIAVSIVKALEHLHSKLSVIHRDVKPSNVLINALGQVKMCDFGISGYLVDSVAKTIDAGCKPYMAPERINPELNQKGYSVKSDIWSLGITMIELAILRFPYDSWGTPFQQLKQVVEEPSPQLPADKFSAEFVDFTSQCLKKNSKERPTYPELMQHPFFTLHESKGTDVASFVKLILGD
MAPKAPK3 (human), sequence (Q16644 whole entry, looked up): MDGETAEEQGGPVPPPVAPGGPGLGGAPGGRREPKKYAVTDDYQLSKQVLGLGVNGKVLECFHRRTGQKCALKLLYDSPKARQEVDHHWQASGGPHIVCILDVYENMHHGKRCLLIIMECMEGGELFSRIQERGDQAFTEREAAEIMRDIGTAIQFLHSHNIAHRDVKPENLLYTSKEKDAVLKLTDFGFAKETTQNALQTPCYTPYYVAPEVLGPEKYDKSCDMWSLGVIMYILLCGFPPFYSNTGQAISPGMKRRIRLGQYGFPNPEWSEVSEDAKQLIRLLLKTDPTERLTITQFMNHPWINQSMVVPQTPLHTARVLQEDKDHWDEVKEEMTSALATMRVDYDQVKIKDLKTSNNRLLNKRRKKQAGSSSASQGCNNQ
SRPK1 (human), sequence (Q96SB4 whole entry, looked up): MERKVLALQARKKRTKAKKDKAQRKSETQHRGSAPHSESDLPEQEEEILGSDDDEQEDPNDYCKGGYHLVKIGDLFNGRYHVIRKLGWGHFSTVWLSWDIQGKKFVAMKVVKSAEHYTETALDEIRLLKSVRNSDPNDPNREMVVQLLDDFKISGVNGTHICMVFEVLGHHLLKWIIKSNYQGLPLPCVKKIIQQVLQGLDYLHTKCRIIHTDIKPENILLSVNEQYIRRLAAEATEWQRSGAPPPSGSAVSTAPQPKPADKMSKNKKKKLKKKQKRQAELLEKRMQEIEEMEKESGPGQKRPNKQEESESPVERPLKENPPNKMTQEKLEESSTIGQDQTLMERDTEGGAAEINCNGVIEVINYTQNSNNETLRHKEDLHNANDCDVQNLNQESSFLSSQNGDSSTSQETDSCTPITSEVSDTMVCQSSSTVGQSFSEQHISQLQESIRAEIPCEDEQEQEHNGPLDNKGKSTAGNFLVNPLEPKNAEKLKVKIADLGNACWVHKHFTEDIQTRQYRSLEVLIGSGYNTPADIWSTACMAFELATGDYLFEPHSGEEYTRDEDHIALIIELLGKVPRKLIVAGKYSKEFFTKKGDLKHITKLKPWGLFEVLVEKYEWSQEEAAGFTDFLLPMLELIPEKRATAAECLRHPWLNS
INSRR (human), sequence (P14616 whole entry, looked up): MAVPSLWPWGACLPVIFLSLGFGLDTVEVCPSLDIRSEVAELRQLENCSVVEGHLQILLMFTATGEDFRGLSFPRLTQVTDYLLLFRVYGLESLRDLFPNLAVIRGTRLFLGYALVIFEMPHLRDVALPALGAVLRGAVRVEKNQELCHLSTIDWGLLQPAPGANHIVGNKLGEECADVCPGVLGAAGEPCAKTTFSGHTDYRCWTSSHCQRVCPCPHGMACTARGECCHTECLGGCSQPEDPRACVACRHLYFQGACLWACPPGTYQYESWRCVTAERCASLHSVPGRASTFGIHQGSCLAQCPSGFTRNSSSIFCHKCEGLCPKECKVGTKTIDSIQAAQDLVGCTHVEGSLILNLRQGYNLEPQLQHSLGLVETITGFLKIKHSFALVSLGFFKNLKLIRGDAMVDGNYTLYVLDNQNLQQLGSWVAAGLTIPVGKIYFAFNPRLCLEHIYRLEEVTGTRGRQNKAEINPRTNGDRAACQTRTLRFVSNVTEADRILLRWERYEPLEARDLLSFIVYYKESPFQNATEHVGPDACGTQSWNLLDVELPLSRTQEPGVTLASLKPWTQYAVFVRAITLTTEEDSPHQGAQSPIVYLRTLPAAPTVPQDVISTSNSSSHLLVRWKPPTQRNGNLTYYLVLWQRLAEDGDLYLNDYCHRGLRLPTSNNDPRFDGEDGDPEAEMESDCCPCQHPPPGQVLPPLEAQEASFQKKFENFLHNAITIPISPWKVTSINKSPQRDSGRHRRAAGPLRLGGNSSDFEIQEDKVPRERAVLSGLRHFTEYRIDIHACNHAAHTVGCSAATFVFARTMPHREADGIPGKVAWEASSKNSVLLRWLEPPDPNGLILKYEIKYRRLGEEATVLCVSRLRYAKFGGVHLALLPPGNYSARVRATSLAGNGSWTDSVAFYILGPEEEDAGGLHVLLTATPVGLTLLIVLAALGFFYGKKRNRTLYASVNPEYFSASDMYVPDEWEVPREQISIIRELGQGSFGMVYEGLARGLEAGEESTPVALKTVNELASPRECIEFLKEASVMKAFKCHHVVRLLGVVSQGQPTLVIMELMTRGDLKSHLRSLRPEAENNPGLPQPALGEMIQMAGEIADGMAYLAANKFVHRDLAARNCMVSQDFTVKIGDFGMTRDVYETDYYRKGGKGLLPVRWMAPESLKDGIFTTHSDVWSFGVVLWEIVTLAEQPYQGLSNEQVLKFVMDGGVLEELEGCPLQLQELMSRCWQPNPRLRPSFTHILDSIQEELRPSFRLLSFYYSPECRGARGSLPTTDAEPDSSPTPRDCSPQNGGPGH
PHKG1 (human), sequence (Q16816 whole entry, looked up): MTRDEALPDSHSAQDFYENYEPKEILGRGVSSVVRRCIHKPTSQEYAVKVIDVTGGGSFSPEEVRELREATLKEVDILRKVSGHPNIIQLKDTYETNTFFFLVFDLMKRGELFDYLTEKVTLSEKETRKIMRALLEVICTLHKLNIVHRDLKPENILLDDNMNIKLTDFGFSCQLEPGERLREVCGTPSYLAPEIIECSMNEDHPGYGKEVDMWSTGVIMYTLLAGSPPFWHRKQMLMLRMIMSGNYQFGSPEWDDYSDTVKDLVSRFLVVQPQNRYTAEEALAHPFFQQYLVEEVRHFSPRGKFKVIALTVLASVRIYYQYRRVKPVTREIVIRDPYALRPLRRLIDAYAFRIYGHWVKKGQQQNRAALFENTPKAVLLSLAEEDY
SGK1 (human), O00141 [S422D], sequence (O00141 whole entry S422D, looked up): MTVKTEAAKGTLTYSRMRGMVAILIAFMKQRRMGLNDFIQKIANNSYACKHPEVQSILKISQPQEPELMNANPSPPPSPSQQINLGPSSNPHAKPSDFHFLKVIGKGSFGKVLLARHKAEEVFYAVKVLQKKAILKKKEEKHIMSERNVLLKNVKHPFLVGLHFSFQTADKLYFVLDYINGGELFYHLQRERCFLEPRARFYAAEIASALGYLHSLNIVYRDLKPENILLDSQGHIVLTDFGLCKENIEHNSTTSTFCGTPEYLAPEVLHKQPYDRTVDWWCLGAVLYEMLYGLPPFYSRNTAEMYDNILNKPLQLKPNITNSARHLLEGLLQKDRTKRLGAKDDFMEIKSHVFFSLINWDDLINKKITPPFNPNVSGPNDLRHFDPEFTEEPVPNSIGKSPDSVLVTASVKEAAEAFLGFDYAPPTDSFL

residual activity (TAOK1 (human); compound 0.01 µM): 106%
residual activity (TAOK1 (human); compound 0.1 µM): 101%
residual activity (TAOK1 (human); compound 1.0 µM): 100%
residual activity (AURKA (human); compound 0.01 µM): 106%
residual activity (AURKA (human); compound 0.1 µM): 103%
residual activity (AURKA (human); compound 1.0 µM): 108%
residual activity (GCK (human); compound 0.01 µM): 114%
residual activity (GCK (human); compound 0.1 µM): 105%
residual activity (GCK (human); compound 1.0 µM): 97%
residual activity (BTK (human); compound 0.01 µM): 105%
residual activity (BTK (human); compound 0.1 µM): 115%
residual activity (BTK (human); compound 1.0 µM): 109%
residual activity (RIPK2 (human); compound 0.01 µM): 104%
residual activity (RIPK2 (human); compound 0.1 µM): 102%
residual activity (RIPK2 (human); compound 1.0 µM): 85%
residual activity (MAPKAPK3 (human); compound 0.01 µM): 105%
residual activity (MAPKAPK3 (human); compound 0.1 µM): 99%
residual activity (MAPKAPK3 (human); compound 1.0 µM): 99%
residual activity (CHEK1 (human); compound 0.01 µM): 93%
residual activity (CHEK1 (human); compound 0.1 µM): 93%
residual activity (CHEK1 (human); compound 1.0 µM): 94%
residual activity (RPS6KA3 KD1 KD2 (human); compound 0.01 µM): 129%
residual activity (RPS6KA3 KD1 KD2 (human); compound 0.1 µM): 125%
residual activity (RPS6KA3 KD1 KD2 (human); compound 1.0 µM): 129%
residual activity (PRKACA (human); compound 0.01 µM): 91%
residual activity (PRKACA (human); compound 0.1 µM): 99%
residual activity (PRKACA (human); compound 1.0 µM): 100%
residual activity (MELK (human); compound 0.01 µM): 92%
residual activity (MELK (human); compound 0.1 µM): 100%
residual activity (MELK (human); compound 1.0 µM): 104%
residual activity (MINK1 (human); compound 0.01 µM): 106%
residual activity (MINK1 (human); compound 0.1 µM): 111%
residual activity (MINK1 (human); compound 1.0 µM): 102%
residual activity (MAP2K2 (human); compound 0.01 µM): 74%
residual activity (MAP2K2 (human); compound 0.1 µM): 21%
residual activity (MAP2K2 (human); compound 1.0 µM): 9%
residual activity (FGFR1 (human); compound 0.01 µM): 118%
residual activity (FGFR1 (human); compound 0.1 µM): 154%
residual activity (AURKB (human); compound 0.01 µM): 90%
residual activity (AURKB (human); compound 0.1 µM): 92%
residual activity (AURKB (human); compound 1.0 µM): 107%
residual activity (BRSK1 (human); compound 0.01 µM): 90%
residual activity (BRSK1 (human); compound 0.1 µM): 90%
residual activity (BRSK1 (human); compound 1.0 µM): 82%
residual activity ([1]; compound 0.01 µM): 93%
residual activity ([1]; compound 0.1 µM): 91%
residual activity ([1]; compound 1.0 µM): 104%
residual activity (MAPK12 (human); compound 0.01 µM): 100%
residual activity (MAPK12 (human); compound 0.1 µM): 105%
residual activity (ERBB4 (human); compound 0.1 µM): 104%
residual activity (ERBB4 (human); compound 1.0 µM): 105%
residual activity (PIM2 (human); compound 0.01 µM): 93%
residual activity (PIM2 (human); compound 0.1 µM): 114%
residual activity (MST4 (human); compound 0.01 µM): 96%
residual activity (MST4 (human); compound 0.1 µM): 106%
residual activity (MST4 (human); compound 1.0 µM): 86%
residual activity (CSNK2A1 (human); compound 0.01 µM): 123%
residual activity (CSNK2A1 (human); compound 0.1 µM): 121%
residual activity (CSNK2A1 (human); compound 1.0 µM): 133%
residual activity (PRKCA (human); compound 0.01 µM): 88%
residual activity (PRKCA (human); compound 0.1 µM): 88%
residual activity (PRKCA (human); compound 1.0 µM): 92%
residual activity (MAPK10 (human); compound 0.01 µM): 89%
residual activity (MAPK10 (human); compound 0.1 µM): 101%
residual activity (MAPK10 (human); compound 1.0 µM): 107%
residual activity (SRPK1 (human); compound 0.01 µM): 111%
residual activity (SRPK1 (human); compound 0.1 µM): 95%
residual activity (SRPK1 (human); compound 1.0 µM): 100%
residual activity (DYRK2 (human); compound 0.01 µM): 109%
residual activity (DYRK2 (human); compound 0.1 µM): 105%
residual activity (INSRR (human); compound 0.01 µM): 104%
residual activity (INSRR (human); compound 0.1 µM): 108%
residual activity (INSRR (human); compound 1.0 µM): 113%
residual activity (MAP2K6 (human); compound 0.01 µM): 59%
residual activity (MAP2K6 (human); compound 0.1 µM): 21%
residual activity (MAP2K6 (human); compound 1.0 µM): 20%
residual activity (PHKG1 (human); compound 0.01 µM): 100%
residual activity (PHKG1 (human); compound 0.1 µM): 98%
residual activity (PHKG1 (human); compound 1.0 µM): 107%
residual activity (FLT1 (human); compound 0.01 µM): 65%
residual activity (FLT1 (human); compound 0.1 µM): 5%
residual activity (FLT1 (human); compound 1.0 µM): 3%
residual activity (EEF2K (human); compound 0.01 µM): 91%
residual activity (EEF2K (human); compound 0.1 µM): 103%
residual activity (EPHA2 (human); compound 0.01 µM): 97%
residual activity (EPHA2 (human); compound 0.1 µM): 98%
residual activity (EPHA2 (human); compound 1.0 µM): 56%
residual activity (MAPKAPK5 (human); compound 0.01 µM): 74%
residual activity (MAPKAPK5 (human); compound 0.1 µM): 72%
residual activity (MAPKAPK5 (human); compound 1.0 µM): 32%
residual activity (CDK2 CCNA2 (human); compound 0.01 µM): 91%
residual activity (CDK2 CCNA2 (human); compound 0.1 µM): 81%
residual activity (CDK2 CCNA2 (human); compound 1.0 µM): 76%
residual activity ([2]; compound 0.01 µM): 99%
residual activity ([2]; compound 0.1 µM): 94%
residual activity ([2]; compound 1.0 µM): 95%
residual activity (PIM3 (human); compound 0.01 µM): 92%
residual activity (PIM3 (human); compound 0.1 µM): 98%
residual activity (PIM3 (human); compound 1.0 µM): 99%
Structure (SMILES): COc1cc(O)c2c(c1)[C@H]1OC1C[C@H](O)[C@H](O)C(=O)/C=C\C[C@H](C)OC2=O (some centres not stated)
residual activity (MAPK15 (human); compound 0.01 µM): 80%
residual activity (MAPK15 (human); compound 0.1 µM): 27%
residual activity (MAPK15 (human); compound 1.0 µM): 11%
